Results on 44 substances are retold here after patent US11840686B2, “Modulation of prekallikrein (PKK) expression” (Ionis Pharmaceuticals, Inc., priority 2013, dated 2023).

Strand notation (5' to 3'): a small letter for the sugar, then the base; units joined by * are phosphorothioate-linked, units joined directly phosphodiester-linked; [ ] holds rarer units or linkages, { } end groups; capitals alone tell only the bases. e = 2'-O-(2-methoxyethyl) (MOE); [5mC] = 5-methylcytosine; d = 2'-deoxy (DNA)

The data set relates to human PKK mRNA. As to the kind of experiment: Antisense inhibition of human PKK mRNA in HepaRG cells, 5,000 nM (Example 2). In kind it is cell-based. The conditions noted are these: human PKK mRNA, HepaRG cells, 5,000 nM antisense oligonucleotide, Table 18. An outline of the steps:
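qRT-PCR (RTS3454) read-out, RIBOGREEN-normalized; % inhibition vs untreated cells. HepaRG, 20,000 cells/well, electroporation, 5,000 nM ASO, ~24 h.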
One may read the % inhibition as the change of the read-out against control, counted positive when it falls. Read a low % inhibition as little suppression. Turning to “548732 (DNA eA*e[5mC]*eT*eG*dT*dA*d[5mC]*dT*dA*dG*dT*dT*dT*d[5mC]*e[5mC]*eT*eA; antisense) [compound 548732]”, the “% inhibition” value is on record as 36%.
With “548733 (DNA e[5mC]*eA*e[5mC]*eT*dG*dT*dA*d[5mC]*dT*dA*dG*dT*dT*dT*e[5mC]*e[5mC]*eT; antisense) [compound 548733]” the figure was 84%.
As for “548734 (DNA eT*e[5mC]*eA*e[5mC]*dT*dG*dT*dA*d[5mC]*dT*dA*dG*dT*dT*eT*e[5mC]*e[5mC]; antisense) [compound 548734]”, the “% inhibition” value is 51%.
Take “548735 (DNA eA*eT*e[5mC]*eA*d[5mC]*dT*dG*dT*dA*d[5mC]*dT*dA*dG*dT*eT*eT*e[5mC]; antisense) [compound 548735]”: the “% inhibition” value came to 48%.
Consider “548736 (DNA eT*eA*eT*e[5mC]*dA*d[5mC]*dT*dG*dT*dA*d[5mC]*dT*dA*dG*eT*eT*eT; antisense) [compound 548736]”, for which the “% inhibition” value was found to be 21%.
“548737 (DNA eA*e[5mC]*eT*eA*dG*dT*dT*dT*d[5mC]*d[5mC]*dT*dA*dT*eA*eA*e[5mC]*eT; antisense) [compound 548737]”: the “% inhibition” value is on record as 11%.
Next, “548738 (DNA eT*eA*e[5mC]*eT*dA*dG*dT*dT*dT*d[5mC]*d[5mC]*dT*dA*eT*eA*eA*e[5mC]; antisense) [compound 548738]”: 0%; “548739 (DNA eG*eT*eA*e[5mC]*dT*dA*dG*dT*dT*dT*d[5mC]*d[5mC]*dT*eA*eT*eA*eA; antisense) [compound 548739]”: 0%; “548740 (DNA eT*eG*eT*eA*d[5mC]*dT*dA*dG*dT*dT*dT*d[5mC]*d[5mC]*eT*eA*eT*eA; antisense) [compound 548740]”: 0%.
Next, “548741 (DNA e[5mC]*eT*eG*eT*dA*d[5mC]*dT*dA*dG*dT*dT*dT*d[5mC]*e[5mC]*eT*eA*eT; antisense) [compound 548741]”: 69%.
With “548742 (DNA eA*e[5mC]*eT*eG*dT*dA*d[5mC]*dT*dA*dG*dT*dT*dT*e[5mC]*e[5mC]*eT*eA; antisense) [compound 548742]”, the “% inhibition” value worked out at 50%.
As for “548745 (DNA eA*eT*e[5mC]*eA*d[5mC]*dT*dG*dT*dA*d[5mC]*dT*dA*dG*eT*eT*eT*e[5mC]; antisense) [compound 548745]”, the “% inhibition” value is listed as 71%.
As for “548746 (antisense eT*eA*eT*e[5mC]*dA*d[5mC]*dT*dG*dT*dA*d[5mC]*dT*dA*eG*eT*eT*eT) [compound 548746]”, the “% inhibition” value was 40%.
With “548747 (antisense eT*eA*e[5mC]*eT*dA*dG*dT*dT*dT*d[5mC]*d[5mC]*dT*dA*dT*eA*eA*e[5mC]*eT) [compound 548747]” the figure was 2%; with “548748 (antisense eG*eT*eA*e[5mC]*dT*dA*dG*dT*dT*dT*d[5mC]*d[5mC]*dT*dA*eT*eA*eA*e[5mC]) [compound 548748]”, 0%.
With “548749 (antisense eT*eG*eT*eA*d[5mC]*dT*dA*dG*dT*dT*dT*d[5mC]*d[5mC]*dT*eA*eT*eA*eA) [compound 548749]” the figure was 0%.
“548750 (antisense e[5mC]*eT*eG*eT*dA*d[5mC]*dT*dA*dG*dT*dT*dT*d[5mC]*d[5mC]*eT*eA*eT*eA) [compound 548750]”: the “% inhibition” value was determined as 62%.
Next, “548751 (antisense eA*e[5mC]*eT*eG*dT*dA*d[5mC]*dT*dA*dG*dT*dT*dT*d[5mC]*e[5mC]*eT*eA*eT) [compound 548751]”: 53%; “548754 (antisense eA*eT*e[5mC]*eA*d[5mC]*dT*dG*dT*dA*d[5mC]*dT*dA*dG*dT*eT*eT*e[5mC]*e[5mC]) [compound 548754]”: 77%.
“548755 (antisense eT*eA*eT*e[5mC]*dA*d[5mC]*dT*dG*dT*dA*d[5mC]*dT*dA*dG*eT*eT*eT*e[5mC]) [compound 548755]”: the “% inhibition” value worked out at 20%.
Take “548759 (antisense eA*eA*e[5mC]*eA*dG*dT*dA*dT*d[5mC]*dA*d[5mC]*dT*dG*eT*eA*e[5mC]*eT) [compound 548759]”: the “% inhibition” value is given as 68%.
With “548760 (antisense eT*eA*eA*e[5mC]*dA*dG*dT*dA*dT*d[5mC]*dA*d[5mC]*dT*eG*eT*eA*e[5mC]) [compound 548760]” the figure was 53%; with “548761 (antisense e[5mC]*eT*eA*eA*d[5mC]*dA*dG*dT*dA*dT*d[5mC]*dA*d[5mC]*eT*eG*eT*eA) [compound 548761]”, 49%; with “548762 (antisense eT*e[5mC]*eT*eA*dA*d[5mC]*dA*dG*dT*dA*dT*d[5mC]*dA*e[5mC]*eT*eG*eT) [compound 548762]”, 16%.
Turning to “548763 (antisense e[5mC]*eT*e[5mC]*eT*dA*dA*d[5mC]*dA*dG*dT*dA*dT*d[5mC]*eA*e[5mC]*eT*eG) [compound 548763]”, the “% inhibition” value is recorded as 44%.
Next, “548764 (antisense eT*eA*eT*e[5mC]*dA*d[5mC]*dT*dG*dT*d[5mC]*d[5mC]*dT*dA*eT*eA*eA*e[5mC]) [compound 548764]”: 31%; “548765 (antisense eA*eT*eA*eT*d[5mC]*dA*d[5mC]*dT*dG*dT*d[5mC]*d[5mC]*dT*eA*eT*eA*eA) [compound 548765]”: 0%.
For the substance “548766 (antisense eT*eA*eT*eA*dT*d[5mC]*dA*d[5mC]*dT*dG*dT*d[5mC]*d[5mC]*eT*eA*eT*eA) [compound 548766]”, the “% inhibition” value is recorded as 36%.
Turning to “548767 (antisense eT*eA*eT*e[5mC]*dA*d[5mC]*dT*dG*dT*d[5mC]*d[5mC]*dT*dA*eT*eA*eT*e[5mC]) [compound 548767]”, the “% inhibition” value is 59%.
In the case of “548768 (antisense eG*eT*eA*eT*d[5mC]*dA*d[5mC]*dT*dG*dT*d[5mC]*d[5mC]*dT*eA*eT*eA*eT) [compound 548768]”, the “% inhibition” value is 56%.
Next, “548769 (antisense eA*eG*eT*eA*dT*d[5mC]*dA*d[5mC]*dT*dG*dT*d[5mC]*d[5mC]*eT*eA*eT*eA) [compound 548769]”: 64%; “548771 (antisense eA*eT*eA*eA*d[5mC]*dA*dG*dT*dA*dT*d[5mC]*dA*d[5mC]*eT*eG*eT*e[5mC]) [compound 548771]”: 62%.
With “548772 (antisense eT*eA*eT*eA*dA*d[5mC]*dA*dG*dT*dA*dT*d[5mC]*dA*e[5mC]*eT*eG*eT) [compound 548772]” the figure was 0%.
Next, “548773 (antisense e[5mC]*eT*eA*eT*dA*dA*d[5mC]*dA*dG*dT*dA*dT*d[5mC]*eA*e[5mC]*eT*eG) [compound 548773]”: 0%.
On to “548774 (antisense e[5mC]*e[5mC]*eT*eA*dT*dA*dA*d[5mC]*dT*dA*dT*dA*dA*e[5mC]*eA*eG*eT) [compound 548774]”, for which the “% inhibition” value worked out at 0%.
Next, “548775 (antisense eT*e[5mC]*e[5mC]*eT*dA*dT*dA*dA*d[5mC]*dT*dA*dT*dA*eA*e[5mC]*eA*eG) [compound 548775]”: 0%; “548776 (antisense e[5mC]*e[5mC]*eT*eA*dT*dA*dA*d[5mC]*dT*dA*dT*dA*dA*e[5mC]*eA*eA*eT) [compound 548776]”: 0%; “548777 (antisense eG*eT*eA*eA*d[5mC]*dA*dG*dT*dA*dT*d[5mC]*dA*d[5mC]*eT*eG*eT*eA) [compound 548777]”: 41%.
For “548778 (antisense eA*eT*eA*eA*d[5mC]*dA*dG*dT*dA*dT*d[5mC]*dA*d[5mC]*eT*eG*eT*eA) [compound 548778]”, the “% inhibition” value was 20%.
Take “548779 (antisense eG*eT*e[5mC]*e[5mC]*dT*dA*dT*dA*dA*d[5mC]*dT*dA*dT*eA*eA*e[5mC]*eA) [compound 548779]”: the “% inhibition” value came out at 0%.
Turning to “548780 (antisense eT*eG*eT*e[5mC]*d[5mC]*dT*dA*dT*dA*dA*d[5mC]*dT*dA*eT*eA*eA*e[5mC]) [compound 548780]”, the “% inhibition” value came to 22%.
For “548781 (antisense eA*e[5mC]*e[5mC]*eT*dA*dT*dA*dA*d[5mC]*dT*dA*dT*dA*eA*e[5mC]*eA*eG) [compound 548781]”, the “% inhibition” value is given as 0%.
In the case of “548782 (antisense eT*eA*e[5mC]*e[5mC]*dT*dA*dT*dA*dA*d[5mC]*dT*dA*dT*eA*eA*e[5mC]*eA) [compound 548782]”, the “% inhibition” value is 0%.
Next, “548783 (antisense eA*e[5mC]*e[5mC]*eT*dA*dT*dA*dA*d[5mC]*dT*dA*dT*dA*eA*e[5mC]*eA*eA) [compound 548783]”: 0%.
